Experimental data as given in publication PMC5640644, “HDX reveals the conformational dynamics of DNA sequence specific VDR co-activator interactions” (Nature Communications, 2017).

System: TRPV6
Experiment: TRPV6 gene activation assay (TRPV6 mRNA, QuantiGene 2.0) in differentiated C2BBe1 cells
Type: cell-based, human
Settings: for Max. Stim., TRPV6 activation: C2BBe1 cells, fold change over DMSO normalized to 1,25D3 = 100%; for EC50: C2BBe1 cells differentiated 6 days, 24 h
Experimental: C2BBe1 (a clone of CaCO2) cells (CRL-2101, American Type Culture Collection, Manassas, VA) were maintained in DMEM (ATCC 30-2002) supplemented with 10% FBS and insulin-transferrin-selenium-G supplement (Invitrogen, Carlsbad, CA). For TRPV6 expression analysis, cells were plated in 96-well tissue culture treated plates (40,000 per well) in differentiation medium (DMEM containing 5% charcoal-stripped FBS and insulin-transferrin-sodium selenite supplement (ITS)). Cells were allowed to differentiate for 6 days with medium replacement every other day before compound treatment. The medium was removed, and serial dilutions of 1,25D3 or VDRMs in concentrations ranging from 10 μM to 2 nM in differentiation medium were added. After 24 h, the medium was removed, and cell plates were sealed and frozen at −80 °C until assayed. QuantiGene 2.0 Assay Kit (Affymetrix QS0009) was used to quantitate TRPV6 and housekeeping gene GUSB mRNA levels. Following the kit instructions, lysis buffer was added to the frozen cells and incubated briefly at 55 °C […]. Following an overnight incubation the capture plates were washed and the probes amplified following kit instructions. The resulting luminescence signal was detected on an Envision plate reader (Perkin Elmer). TRPV6 signal was normalized using the GUSB signal and the resulting data was fit to a 4-parameter logistic to determine EC50 values.

[1] = Homo sapiens, average of replicate runs

Compound	Max. Stim., TRPV6 activation [%]	EC50 [1] [nM]	EC50 (top concentration 10 μM) [nM]
CCC(CC)(c1ccc(OCC(O)C(C)(C)C)c(C)c1)c1ccc(C(=O)N(C)CC(=O)O)c(C)c1 (stereo not drawn) [Cmpd1, [(4-{1-ethyl-1-[4-(2-hydroxy-3,3-dimethyl-butoxy)-3-methyl-phenyl]-propyl}-2-methyl-benzoyl)-methyl-amino]-acetic acid]	80.3	63	–
CCc1cc(C(CC)(CC)c2ccc(OCC(O)C(C)(C)C)c(C)c2)sc1C(=O)N[C@@H](C)C(=O)O (single isomer, unassigned) [Cmpd2, L-2-[(5-{1-Ethyl-1-[4-(2-hydroxy-3,3-dimethyl-butoxy)-3-methyl-phenyl]-propyl}-3-ethyl-thiophene-2-carbonyl)-amino]-propionic acid]	98.2	395	–
CCC(CC)(c1ccc(OCC(O)C(C)(C)C)c(C)c1)c1cc(C)c(C(=O)Nc2nnn[nH]2)s1 (stereo not drawn) [Cmpd3, 3'-[4-(2-hydroxy-3,3-dimethylbutoxy)-3-methylphenyl]-3'-[5-(tetrazol-5-yl-aminocarbonyl)-4-methylthiophen-2-yl]pentane]	17.4	–	> 10000
